Source: patent US20250382273A1 (INSTITUT NATIONAL DE LA SANTE ET DE LA RECHERCHE MEDICALE, priority 2022, published 2025)
Where two headings read alike, the source gives them in different places.

Key:
[1] = tested on: M. tuberculosis H37Rv_gfp; format: cell-based, Mycobacterium tuberculosis
[2] = tested on: M. tuberculosis H37Rv_gfp; format: cell-based, Mycobacterium tuberculosis; conditions: in combination with delamanid 4 ng·mL−1, 5 days at 37° C.
[3] = in combination with pretomanid 20 ng·mL−1, 5 days at 37° C., […], read-out: EC50 H37Rv_gfp

Row | Compound | EC50 [1, 3] | EC50 [2] | EC50 ([1]; in combination with pretomanid, unit inferred, read-out: average EC50 H37Rv_gfp) | EC50 ([1]; read-out: EC50 H37Rv_gfp)
1 | Cc1ccc2nc(N3C(=O)[C@@H]4[C@H](C3=O)[C@@H]3C=C[C@H]4C3)sc2c1 [Example 2, (1R,2S,6R,7S)-4-(6-methyl-1,3-benzothiazol-2-yl)-4-azatricyclo[5.2.1.02,6]dec-8-ene-3,5-dione] | < 1 µM | 0.42 µM |  | 
2 | O=C(Nc1nc2ccc(Oc3cc(C(F)(F)F)ccn3)cc2s1)[C@@H]1C2C=CC(C2)[C@@H]1C(=O)O (stereo partly drawn) [Example 27, 3-[[6-[[4-(trifluoromethyl)-2-pyridyl]oxy]-1,3-benzothiazol-2-yl]carbamoyl]bicyclo[2.2.1]hept-5-ene-2-carboxylic acid] | < 1 µM | 0.15 µM | 0.11 µM | 
3 | Cc1ccc2nc(NC(=O)[C@@H]3C4C=CC(C4)[C@@H]3C(=O)O)sc2c1 (mixture of isomers) [Example 1, 3-[(6-methyl-1,3-benzothiazol-2-yl)carbamoyl]bicyclo[2.2.1]hept-5-ene-2-carboxylic acid] | 1 to 5 µM | 0.31 µM |  | 
4 | N#Cc1ccc2nc(NC(=O)[C@@H]3C4C=CC(C4)[C@@H]3C(=O)O)sc2c1 (stereo partly drawn) [Example 40, 3-[(6-cyano-1,3-benzothiazol-2-yl)carbamoyl]bicyclo[2.2.1]hept-5-ene-2-carboxylic acid] |  |  |  | 1 to 5 µM
5 | C#Cc1ccc2nc(N3C(=O)[C@@H]4[C@H](C3=O)[C@@H]3C=C[C@H]4C3)sc2c1 [Example 72, (1R,2S,6R,7S)-4-(6-ethynyl-1,3-benzothiazol-2-yl)-4-azatricyclo[5.2.1.02,6]dec-8-ene-3,5-dione] | 1 to 5 µM |  |  | 
6 | O=C(Nc1nc2ccc(Oc3ccc(C(F)(F)F)cn3)cc2s1)[C@@H]1C2C=CC(C2)[C@@H]1C(=O)O (stereo partly drawn) [Example 35, 3-[[6-[[5-(trifluoromethyl)-2-pyridyl]oxy]-1,3-benzothiazol-2-yl]carbamoyl]bicyclo[2.2.1]hept-5-ene-2-carboxylic acid] | 1 to 5 µM |  |  | 
7 | O=C(O)C1C2C=CC(C2)[C@H]1C(=O)Nc1nc2ccc(-c3ccc(C(F)(F)F)nc3)cc2s1 (stereo partly drawn) [Example 66, 3-[[6-[6-(trifluoromethyl)-3-pyridyl]-1,3-benzothiazol-2-yl]carbamoyl]bicyclo [2.2.1]hept-5-ene-2-carboxylic acid] | < 1 µM |  |  | 
8 | O=C(Nc1nc2ccc(-c3cccc(C(F)(F)F)c3)cc2s1)[C@@H]1C2C=CC(C2)[C@@H]1C(=O)O (stereo partly drawn) [Example 59, 3-[[6-[3-(trifluoromethyl)phenyl]-1,3-benzothiazol-2-yl]carbamoyl]bicyclo[2.2.1]hept-5-ene-2-carboxylic acid] | < 1 µM |  |  | 
9 | O=C(Nc1nc2ccc(C#CC3CC3)cc2s1)[C@@H]1C2C=CC(C2)[C@@H]1C(=O)O (stereo partly drawn) [Example 79, 3-[[6-(2-cyclopropylethynyl)-1,3-benzothiazol-2-yl]carbamoyl]bicyclo[2.2.1]hept-5-ene-2-carboxylic acid] | < 1 µM |  |  | 
10 | O=C(Nc1nc2ccc(Oc3ccccc3)cc2s1)[C@@H]1C2C=CC(C2)[C@@H]1C(=O)O (stereo partly drawn) [Example 18, [2-hydroxy-1,1-bis(hydroxymethyl)ethyl]ammonium: (1R,2S,3R,4S)-3-[(6-phenoxy-1,3-benzothiazol-2-yl)carbamoyl]bicyclo[2.2.1]hept-5-ene-2-carboxylate] | < 1 µM | 0.16 µM |  | 
